Where two headings read alike, the source gives them in different places.
Assays:
[1] = tested on: CHOK1 GS cells; experiment: CellTiter-Glo cytotoxicity assay in CHOK1 GS cell line; type: cell-based, Chinese hamster; settings: Cricetulus griseus
Procedure: To assay the potential toxicity induced in the CHO cell culture by the Trp degradation products found in this study, a cytotoxicity assay CellTiter-Glo® Luminescent Cell Viability Assay (Cat #G7572, Promega, Madison, WI, USA) was used, following the manufacturer’s instructions. Briefly, the cells were seeded with 25,000 viable cells per cavity of a 96-well opaque white cell culture plate (Thermo Fisher, Waltham, MA, USA) in 80 µL of a pre-warmed medium. […] A DMSO control was added in the same concentration range as the tryptophan degradation compounds were diluted.

[2] = tested on: CHOK1 cells; experiment: CellTiter-Glo cytotoxicity assay in CHOK1 cell line; type: cell-based, Chinese hamster; settings: Cricetulus griseus
Procedure: (§1) To assay the potential toxicity induced in the CHO cell culture by the Trp degradation products found in this study, a cytotoxicity assay CellTiter-Glo® Luminescent Cell Viability Assay (Cat #G7572, Promega, Madison, WI, USA) was used, following the manufacturer’s instructions. Briefly, the cells were seeded with 25,000 viable cells per cavity of a 96-well opaque white cell culture plate (Thermo Fisher, Waltham, MA, USA) in 80 µL of a pre-warmed medium. Tryptophan degradation compounds were added in triplicates to the cells, ranging from 1 mM to 46 nM. A DMSO control was added in the same concentration range as the tryptophan degradation compounds were diluted. The dose response curves were fitted with a 4PL model by GraphPad Prism v.7 (GraphPad Software, San Diego, CA, USA) after luminescence readout with an EnVision 2104 Multilabel Reader (Perkin Elmer, Waltham, MA, USA).

[3] = tested on: CHOZN 6 cells; experiment: CellTiter-Glo cytotoxicity assay in CHOZN 6 cell line; type: cell-based, Chinese hamster; settings: Cricetulus griseus, read-out: [GI50] CHOZN 6
Procedure: as §1

[4] = tested on: CHO cells; experiment: CHO cell toxicity summarised across the four CHO cell lines; type: cell-based, Chinese hamster; settings: Cricetulus griseus; across all four CHO cell lines; read-out: GI50 across all cell lines
Procedure: as §1

[5] = tested on: CHOZN 10 cells; experiment: CellTiter-Glo cytotoxicity assay in CHOZN 10 cell line; type: cell-based, Chinese hamster; settings: Cricetulus griseus, read-out: [GI50] CHOZN 10
Procedure: as §1

[6] = Color measurement (ΔE*) of standards spiked into feed; type: physicochemical; settings: theoretical 500 µM, 1% DMSO, ΔE* > 1 deemed significant
Procedure: (§2) Compounds were dissolved in DMSO at 50 mM and then spiked into the solutions to achieve a final compound concentration of 500µM. Some of the tested compounds formed a precipitate immediately upon spiking of the DMSO solution. As the precipitates in solution can interfere with the absorption measurement, each sample was centrifuged prior to taking absorption measurements, meaning that the final concentrations were not all at 500 µM. […] In stability experiments, eight of these nine compounds (all except 46) were present in at least one condition in the degraded water samples, and four of these nine compounds (28, 31, 38, and 46) were present in the degraded feed.
(§3) Absorbance measurements were taken in the range of 380 nm to 780 nm (20 nm steps) of 100 µL of the samples in four technical replicates (Envision, Perkin Elmer, Waltham, MA, USA). From the absorbance values, the change in color was calculated using L*a*b* and ΔE* values according to DIN 5033-3 and DIN 6174 norms. The CIE 1931 standard observer (2°) and the D65 illuminant were selected.
(§4) Chemical standards were prepared as 50 mM stocks in DMSO and then spiked into the aqueous solutions (either water or feed) to achieve a theoretical compound concentration of 500 µM (1% DMSO). The solutions were centrifuged, and the absorbance measurements of these solutions was measured and converted to ΔE* values as described above. The control condition was pure DMSO (1% v/v).

[7] = Color measurement (ΔE*) of standards spiked into water; type: physicochemical; settings: theoretical 500 µM, 1% DMSO, ΔE* > 1 deemed significant
Procedure: as §2, §3, §4

[8] = tested on: CHO cells; settings: cited from earlier work
[9] = Degradation of tryptophan in water under stressed conditions; type: physicochemical; settings: 10 mM Trp in water pH 7, 70 °C, after 24 days
Procedure: For the Trp solutions, 10 mM Trp solutions were prepared in water with a pH adjustment to pH 7.0 ± 0.3 using NaOH(aq.) and sterile filtered with Steriflip® filter units (Merck, Darmstadt, Germany). For H2O2 exposure testing, the solutions were spiked with hydrogen peroxide (30%, 8.82 M) to 0, 10, 25, 50, or 100 mM, and stored for 4h at RT (~19–23 °C), light-protected. For the UV exposure effects, the solutions were stored for 4 h under a UV-lamp set to an intensity of 540 V (UV-A, -B and -C radiation). Samples tested for temperature effects were stored light-protected for 24 days at 4 °C, room temperature (RT, i.e., ~19–23 °C), 37 °C, or 70 °C. Feed solutions were sterile-filtered as above and stored for 98 days at 4 °C, RT (~19–23 °C) or 37 °C. The samples were either stored light-protected or exposed to laboratory fluorescent lighting with partial exposure to glass-filtered daylight (light-exposed). For testing the a-ketoglutaric acid effects in feed, dry powder feed was reconstituted with a-ketoglutaric acid, pH adjusted to 7.0 ± 0.3 with NaOH (aq.), filtered as above, and stored light-protected at RT (~19–23 °C) or 37 °C for 98 days. Ammonia was quantified using Cedex Bio HT (Roche, Mannheim, Germany). Aliquots were frozen at −20 °C for subsequent amino acid analysis and LC-MS.
Amino acid analysis was performed using a pre-column derivatization using the AccQ Tag® Ultra Reagent kit. […]

[10] = CHO-K1, CHOK1 GS cell line, 1 mM to 46 nM, 4PL fit, read-out: [GI50] CHOK1 GS
[11] = CHO-K1, CHOK1 cell line, 1 mM to 46 nM, 4PL fit, read-out: [GI50] CHOK1
[12] = CHOZN 6 cell line, 1 mM to 46 nM, 4PL fit
[13] = CHOZN 10 cell line, 1 mM to 46 nM, 4PL fit
[14] = CHO-K1, read-out: [GI50] CHOK1 GS

Which GI50 [1, 10] does the source give for `O=C(O)C1CC2(O)c3ccccc3NC2N1` (centres unmarked) [Compound 6, 1,2,3,3a,8,8a-Hexahydro-3a-hydroxypyrrolo[2,3-b]indole-2-carboxylic acid (PIC)] here?
Its GI50 is over 1000 µM.

With `NC(CC1C(=O)Nc2ccccc21)C(=O)O` (centres unmarked) [Compound 3, 2-amino-3-(2-oxo-2,3-dihydro-1h-indol-3-yl)propanic acid (Oia)] as the compound, how does the GI50 [1, 10] read?
The GI50 was over 1000 µM.

With `O=Cc1c[nH]c2ccccc12` [Compound 18, Indole-3-carboxaldehyde] as the compound, how does the GI50 [2, 11] read?
The GI50 was 226 µM.

What about the GI50 [3, 12] of the same compound?
Its GI50 is 236 µM.

What about the GI50 [4] of the same compound?
Its GI50 is over 226 µM.

What about the GI50 [1, 10] of the same compound?
Its GI50 is 295 µM.

And the GI50 [5, 13]?
The GI50 was 258 µM.

With `O=C(O)c1nccc2c1[nH]c1ccccc12` [Compound 5, 9H-Pyrido[3,4-b]indole-1-carboxylic acid] as the compound, how does the GI50 [2, 11] read?
The GI50 was 158 µM.

What about the “Color change as measured by ΔE* in feed” value [6] of the same compound?
Its value is “significant color change”.

And the “Color change as measured by ΔE* in water” value [7]?
Its value is “significant color change”.

What about the GI50 [3, 12] of the same compound?
The GI50 was 76.7 µM.

What about the GI50 [1, 10] of the same compound?
The GI50 was 118 µM.

What about the GI50 [5, 13] of the same compound?
Its GI50 is 75.5 µM.

For `Nc1ccccc1C(=O)CC(N)C(=O)O` (centres unmarked) [Compound 1, Kynurenine], which GI50 [1, 10] is on record?
Its GI50 is over 1000 µM.

For `O=C(O)CCC(=O)C(=O)O` [aKG, a-Ketoglutaric acid], which “effect on the CHO cell culture” value ([8]; up to 50 mM) is on record?
Its value is “no detrimental effect”.

For `O=C(O)CCC(=O)O` [Compound 66, succinic acid], which “toxicity to CHO cells” value [8] is on record?
Its value is “not toxic to CHO cells”.

For `CC1NC(C(=O)O)Cc2c1[nH]c1ccccc21` (stereo not drawn) [Compound 23, 1-Methyl-2,3,4,9-tetrahydro-1H-beta-carboline-3-carboxylic acid], which GI50 [1, 10] is on record?
Its GI50 is over 1000 µM.

For `OCc1nccc2c1[nH]c1ccccc12` [Compound 29], which GI50 [2, 11] is on record?
The GI50 was 389 µM.

And the GI50 [3, 12]?
Its GI50 is over 1000 µM.

And the GI50 [1, 10]?
Its GI50 is 157 µM.

And the GI50 [5, 13]?
The GI50 was 347 µM.

With `O=C(O)c1ccnc2ccccc12` [Compound 21, 4-Quinolinecarboxylic acid] as the compound, how does the GI50 [1, 10] read?
The GI50 was over 1000 µM.

Which GI50 [1, 10] does the source give for `CC(C)CC1NC(C(=O)O)Cc2c1[nH]c1ccccc21` (centres unmarked) [Compound 56, 2,3,4,9-Tetrahydro-1-(2-methylpropyl)-1H-pyrido[3,4-b]indole-3-carboxylic acid] here?
The GI50 was over 1000 µM.

With `c1ccc2c(c1)[nH]c1cnccc12` [Compound 27, Norharmane] as the compound, how does the GI50 ([2]; CHO-K1, read-out: [GI50] CHOK1) read?
The GI50 was 74.8 µM.

What about the GI50 [3] of the same compound?
Its GI50 is 98.5 µM.

What about the GI50 [1, 14] of the same compound?
Its GI50 is 127 µM.

And the GI50 [5]?
Its GI50 is 64.5 µM.

For `N[C@@H](Cc1c[nH]c2ccccc12)C(=O)O` [Trp, L-Tryptophan], which Trp total loss [9] is on record?
Its Trp total loss is 42%.

For `O=C(O)C1Cc2c([nH]c3ccccc23)C=N1` (centres unmarked) [Compound 24], which GI50 [2, 11] is on record?
Its GI50 is 312 µM.

What about the “Color change as measured by ΔE* in feed” value [6] of the same compound?
Its value is “significant color change”.

What about the “Color change as measured by ΔE* in water” value [7] of the same compound?
Its value is “significant color change”.

And the GI50 [3, 12]?
The GI50 was 314 µM.

What about the GI50 [4] of the same compound?
Its GI50 is over 226 µM.

And the GI50 [1, 10]?
The GI50 was 343 µM.

And the GI50 [5, 13]?
The GI50 was 306 µM.

Which GI50 [1, 10] does the source give for `Cc1nc(C(=O)O)cc2c1[nH]c1ccccc12` [Compound 45] here?
Its GI50 is over 1000 µM.

For `O=C1Cc2ccccc2N1` [Compound 19, 2-Oxindole], which GI50 [1, 10] is on record?
The GI50 was over 1000 µM.

For `NCCc1c[nH]c2ccccc12` [Compound 11, Tryptamine], which GI50 [1, 14] is on record?
Its GI50 is over 1000 µM.

Reference: PMC8228365, “Degradation Products of Tryptophan in Cell Culture Media: Contribution to Color and Toxicity” (International Journal of Molecular Sciences, 2021)
